{
  "source": "patent US8871919B2",
  "about": "“RNAi therapeutic for treatment of Hepatitis C infection” (Florida State University Research Foundation, priority 2007, dated 2014)",
  "key": {"[1]": {"system": "HCV", "conditions": "cited from earlier work"}, "[2]": {"system": "GS5 replicon cells", "test": "NS5A expression in GS5 replicon cells (Western blot)", "type": "cell-based, Hepatitis C virus", "conditions": "for NS5A expression: GS5 cells"}, "[3]": {"system": "HCVcc/JFH-1", "test": "HCVcc/JFH-1 infection of Huh-7.5 cells", "type": "cell-based, Hepatitis C virus", "description": "FIG. 5A is an image of an RNA gel showing HCV IRES RNA levels relative to cellular RNA helicase A (RHA) RNA in total RNA extracts from Huh7.5 cells transduced with several shRNAs (sh-Luc, sh-A159, or sh-B710) following infection with HCVcc/JFH-1 for nine days;\nFIG. 5B is a fluorescence microscopy image showing anticore antibody and DAPI (4′,6′-diamidino-2-phenylindole) staining of paraformaldehyde fixed Huh7.5 cells transduced with either sh-Luc or sh-A159 following infection with HCVcc/JFH-1 for nine days;\nFIG. 5C is an image of Western blots showing expression of the proteins NS3, GAPDH, and CyPA in total protein extracts from Huh7.5 cells transduced with the indicated shRNAs (sh-Luc or sh-A159) at 0, 9, or 12 days after infection with HCVcc/JFH-1 replicons; […]\nFull-length JFH-1 cDNA is provided by Takaji Wakita. Production of infectious HCVcc and infection of Huh-7.5 cells are performed as described previously (See, e.g., Zhong, J. et al., “Robust hepatitis C virus infection in vitro,” Proc. Natl. Acad. Sci. USA, 102:9294-9299 (2005)). Western blotting and immunostaining of infected cells are carried out according to standard methods."}, "[4]": {"system": "RS2 replicon cells", "test": "NS5A-GFP expression in RS2 cells by FACS", "type": "cell-based, Hepatitis C virus", "description": "In contrast to the GS5 replicon, RS2 replicates efficiently in the presence of substantial CyPA knock-down (FIG. 1D)."}, "[5]": {"system": "CyPA", "test": "CyPA expression in RS2 cells (Western blot)", "type": "cell-based, human", "conditions": "RS2 cells stably expressing shRNA (FIG. 3B)", "procedure": "(§1) A human immunodeficiency virus (HIV)-based lentiviral vector is used to express all of the short hairpin RNAs (shRNAs). […] Target or sense sequences for the other shRNAs are as follows:\n(§2) The above sequences may be converted to RNA sequences by changing each thymine (T) to uracil (U). Lentiviral vector production and transduction are performed as described previously (44). Stable cells expressing shRNAs are obtained by selection with 1 μg/ml of puromycin (MP Biomedicals, Solon, Ohio) for 3 weeks."}, "[6]": {"system": "Con1 (GT 1b) replicon cells", "test": "NS5A expression in Con1 (GT 1b) replicon cells, transient transduction", "type": "cell-based, Hepatitis C virus", "conditions": "transient transduction (FIG. 4D)", "description": "(§3) FIG. 4D is an image of Western blots showing expression of the proteins NS5A, CyPB, and CyPA in H77 (GT 1a) and Con1 (GT 1b) replicon cells transduced with the indicated shRNAs (sh-Luc or sh-A161);"}, "[7]": {"system": "RS2 replicon cells", "test": "Colony formation assay, puromycin and G418 double selection, RS2 cells", "type": "cell-based, Hepatitis C virus"}, "[8]": {"system": "GT 1b (Con1) subgenomic replicon", "test": "Colony formation in stable Huh-7.5 cells electroporated with GT 1b (Con1) replicon RNA", "type": "cell-based, Hepatitis C virus", "conditions": "stable Huh-7.5 cells (FIG. 4C)", "description": "(§4) FIG. 4C is an image of plates containing stained Huh-7.5 cells transduced with several shRNAs (sh-Luc, sh-A159, sh-B710, or sh-C454) after four weeks following electroporation with one microgram of either H77 (GT 1a) or Con1 (GT 1b) replicons;\n(§5) GS5 and RS2 cells contain GT 1b replicons with the GFP gene inserted into the NS5A region. (See, e.g., Moradpour, D. et al., “Insertion of green fluorescent protein into nonstructural protein 5A allows direct visualization of functional hepatitis C virus replication complexes,” J. Virol. 78:7400-7409 (2004); Nelson, H. B. et al., “Effect of cell growth on hepatitis C virus (HCV) replication and a mechanism of cell confluence-based inhibition of HCV RNA and protein expression,” J. Virol. 80:1181-1190 (2006)). Next the effect of CyPA knock-down on replicons without GFP is examined. Both GT 1a and 1b replicons are tested. To this end, stable Huh-7.5 cell lines are established that express the various shRNAs and then challenges them, by electroporation, with in vitro-transcribed GT 1a (H77) and 1b (Con1) subgenomic replicon RNAs. The shRNAs effectively silence the expression of their respective targets in the stable cells as expected (FIGS. 4A and 4B). No defect in morphology or growth rate is detected for any of the stable cell lines, confirming that these CyPs are dispensable for cell survival in vitro."}, "[9]": {"system": "H77 (GT 1a) replicon cells", "test": "NS5A expression in H77 (GT 1a) replicon cells, transient transduction", "type": "cell-based, Hepatitis C virus", "conditions": "transient transduction (FIG. 4D)", "description": "as §3"}, "[10]": {"system": "CyPA", "test": "CyPA expression in GS5 cells (Western blot)", "type": "cell-based, human", "procedure": "as §1, §2"}, "[11]": {"system": "GS5 replicon cells", "test": "Colony formation assay, puromycin and G418 double selection, GS5 cells", "type": "cell-based, Hepatitis C virus"}, "[12]": {"system": "vesicular stomatitis virus", "type": "cell-based", "conditions": "sh-A159 Huh-7.5 cells (FIG. 5D)"}, "[13]": {"system": "Rep1b RNA", "conditions": "day 4 vs 7 hours after electroporation (FIG. 2E)", "method": "A parallel electroporation of Rep1b RNA into Huh-7.5/sh-Luc cells serves as a positive control, which is set at 100%;\nOne microgram of replicon RNA is mixed with 9 μg of a pcDNA3.1-based plasmid containing no insert, CyPA cDNA, CyPB cDNA, or CyPC cDNA and used in a standard electroporation (36). RNA is extracted 7 h and 4 days post-electroporation and subjected to quantitative RT-PCR analysis to detect HCV RNA as described previously (See, e.g., Robida, J. M et al., Characterization of hepatitis C virus subgenomic replicon resistance to cyclosporine in vitro, J. Virol., 81:5829-5840 (2007). All the CyP cDNAs are tagged with a Myc epitope at the C terminus, and the CyPA cDNA containing silent mutations in the sh-A159 recognition site is designated CyPA#."}, "[14]": {"system": "GT 1a (H77) subgenomic replicon", "test": "Colony formation in stable Huh-7.5 cells electroporated with GT 1a (H77) replicon RNA", "type": "cell-based, Hepatitis C virus", "conditions": "stable Huh-7.5 cells (FIG. 4C)", "description": "as §4, §5"}, "[15]": {"system": "RS2 replicon cells", "test": "NS5A expression in CsA-resistant RS2 replicon cells (Western blot)", "type": "cell-based, Hepatitis C virus", "conditions": "lentiviral shRNA, 7 days"}, "[16]": {"conditions": "synthesized siRNA duplex, transient transfection (FIG. 2C)"}},
  "note": "“Also recorded” adds a separate entry of the source.",
  "data": [
    {"substance": "alpha-interferon and ribavirin", "values": [
      {"measurement": "sustained efficacy, share of patients", "setting": "[1]", "value": 40, "unit": "%"}
    ]},
    {"substance": "sh-A159: shRNA against CyPA; sense sequence nucleotides 159 through 179 of human CyPA cDNA, hairpin UUCAAGAGA (SEQ ID NO: 3) (AAGGGUUCCUGCUUUCACAGAUUCAAGAGAUCUGUGAAAGCAGGAACCCUU)", "values": [
      {"measurement": "NS5A expression", "setting": "[2]; lentiviral shRNA, 7 days", "value": "inhibits NS5A expression; also recorded: most effective"},
      {"measurement": "NS5A expression with sh-A159-insensitive CyPA cDNA (Myc-A#)", "setting": "[2]; replicon cells, sh-A159 together with Myc-A# (FIG. 2D)", "value": "partially rescued"},
      {"measurement": "HCV infection of stable shRNA cells", "setting": "[3]; Huh-7.5, HCVcc/JFH-1, RT-PCR, core staining, NS3 Western blot", "value": "highly refractory to infection"},
      {"measurement": "viral replication (NS3 expression) in an existing infection", "setting": "[3]; Huh-7.5 infected with JFH-1 for 10 days, then transduced, NS3 measured 7 days after transduction", "value": "suppresses viral replication"},
      {"measurement": "suppression of NS5A-GFP expressing RS2 cells", "setting": "[4]; no selection, 0.5 μg/ml CsA, FACS (FIG. 3C)", "value": "no significant suppression"},
      {"measurement": "sensitivity of RS2 replicon to CsA relative to RS2/sh-Luc", "setting": "[4]; stable RS2 cells, CsA 4 days, FACS (FIG. 3A)", "value": "six to eight times more sensitive"},
      {"measurement": "CyPA expression", "setting": "[5]", "value": "substantial suppression"},
      {"measurement": "NS5A expression", "setting": "[6]", "value": "inhibitory effect"},
      {"measurement": "number of double-resistant colonies", "setting": "[7]", "value": "not observed"},
      {"measurement": "ability of replicon RNA to form colonies", "setting": "[8]", "value": "completely inhibits"},
      {"measurement": "NS5A expression", "setting": "[9]", "value": "inhibitory effect"},
      {"measurement": "CyPA expression", "setting": "[10]; lentiviral shRNA, 7 days (FIG. 2B)", "value": "knock down CyPA expression; also recorded: most effective"},
      {"measurement": "number of double-resistant colonies", "setting": "[11]", "value": "significantly lower number"},
      {"measurement": "susceptibility to infection by vesicular stomatitis virus", "setting": "[12]", "value": "fully susceptible"},
      {"measurement": "HCV RNA replication with sh-A159-insensitive CyPA cDNA (Myc-A#)", "setting": "[13]", "value": "partially rescued"},
      {"measurement": "ability of replicon RNA to form colonies", "setting": "[14]", "value": "completely inhibits"}
    ]},
    {"substance": "sh-C454: shRNA directed at CyPC, nucleotides 454-474 of human CyPC cDNA (SEQ ID NO: 10) (AAGACTGAAGGTGTGCTGGTA) [reference compound]", "values": [
      {"measurement": "NS5A expression", "setting": "[2]; lentiviral shRNA, 7 days", "value": "no effect"},
      {"measurement": "NS5A expression", "setting": "[15]", "value": "no effect"}
    ]},
    {"substance": "si-A159: synthesized siRNA duplex form of sh-A159 (sense SEQ ID NO: 2, antisense SEQ ID NO: 4) (sense AAGGGUUCCUGCUUUCACAGA; antisense UCUGUGAAAGCAGGAACCCUU; listed as RNA, chemistry not given here)", "values": [
      {"measurement": "NS5A expression", "setting": "[2]; [16]", "value": "inhibited"},
      {"measurement": "CyPA expression", "setting": "[10]; [16]", "value": "inhibited; also recorded: no more potent than si-A285"}
    ]}
  ]
}
